Assays:
IL-1β [1] = assay: In-vitro IL-1β inhibition assay in PMA-differentiated, LPS-primed, ATP-stimulated THP1 cells; type: cell-based; details: Homo sapiens, THP-1; THP1 monocytes differentiated with PMA, primed with 500 ng/mL LPS, compound 30 min, 5 mM ATP 1 hr; IL-1β in supernatant; read-out: IC50 (nM), invitro IL-1β inhibitory activity
Method: THP1 monocytes were differentiated with PMA (100 ng/mL) and incubated at 37 deg C. for 20 hrs in presence of 5% CO2. 2×10^5 differentiated cells were plated per well of 96 well tissue culture plates. The cells were primed using 500 ng/mL Lipopolysaccharide and incubating for 4 h under the same condition. The cells were then treated with various concentrations of the compounds for 30 min followed by treatment with 5 mM ATP for 1 hr. The supernatants were collected and analyzed by IL-1b (Mabtech Cat #3415-1H-20) or TNF-α (Mabtech; Cat #3510-1H-20) detection kit. The data were analyzed using GraphPad Prism V7.0. Dose Response Curve (DRC) was constructed to determine the IC50 value by fitting percentage […] data to the GraphPad Prism using nonlinear regression analysis.

IL-1β [2] = assay: In-vivo LPS and ATP induced IL-1β assay; details: Mus musculus, 2.5 h; Dose 10 mpk, po; female C57 mice; serum IL-1β by ELISA; read-out: % IL-1β inhibition in LPS + ATP challenged C57 mice
Method: All the animal experiments were carried out in female rats and mice, bred in-house. Animals were housed in groups of 6 animals per cage, for a week, in order to habituate them to vivarium conditions (25 f 4° C., 60-65% relative humidity, 12:12 h light:dark cycle, with lights on at 7.30 am). All the animal experiments were carried out according to the internationally valid guidelines following approval by the ‘Zydus Research Center animal ethical committee’.
Female C57 mice (6-8 weeks) received intraperitoneal injection of 50 μg/mouse of lipopolysaccharide (LPS) in PBS. Animals were treated immediately with the test compounds or the vehicle. After 2 h of LPS injection, animals were administered with ATP at 12.5 mg/mouse dissolved in PBS via intraperitoneal route. After 30 minutes of ATP injection, serum was collected for IL-1β estimation by ELISA.

SMILES	IC50 (IL-1β [1]) [nM]	inhibition in vivo at 10 mg/kg (IL-1β [2]) [%]
CCCN1CCC[C@@H]1/C=C/S(=O)(=O)NC(=O)Nc1c2c(cc3c1CCC3)CCC2 [Example 4, (R,E)-N-((1,2,3,5,6,7-hexahydro-s-indacen-4-yl)carbamoyl)-2-(1-propylpyrrolidin-2-yl)ethene-1-sulfonamide]	7.4	90
CC(=O)N1CCC[C@H]1/C=C/S(=O)(=O)NC(=O)Nc1c2c(cc3c1CCC3)CCC2 [Example 69, (S,E)-2-(1-acetylpyrrolidin-2-yl)-N-((1,2,3,5,6,7-hexahydro-s-indacen-4-yl)carbamoyl)-ethenesulfonamide]		84
O=C(Nc1c2c(cc3c1CCC3)CCC2)NS(=O)(=O)/C=C/C1CCCO1 (stereo not shown) [Example 73, (E)-N-((1,2,3,5,6,7-hexahydro-s-indacen-4-yl)carbamoyl)-2-(tetrahydrofuran-2-yl)ethene-1-sulfonamide]		80
CC(C)c1cc(F)cc(C(C)C)c1NC(=O)NS(=O)(=O)/C=C/[C@@H]1CCCN1C [Example 77, (S,E)-N-((4-fluoro-2,6-diisopropylphenyl)carbamoyl)-2-(1-methylpyrrolidin-2-yl)ethene-1-sulfonamide]		47
CN1CCCCC1/C=C/S(=O)(=O)NC(=O)Nc1c2c(cc3c1CCC3)CCC2 (stereo not shown) [Example 101, (E)-N-((1,2,3,5,6,7-hexahydro-s-indacen-4-yl)carbamoyl)-2-(1-methylpiperidin-2-yl)ethene-1-sulfonamide]		82
CN1CCC[C@H]1/C=C/S(=O)(=O)NC(=O)Nc1cc2c(c3c1CCC3)CCC2 [Example 102, (E)-N-((1,2,3,6,7,8-hexahydro-as-indacen-4-yl)carbamoyl)-2-(1-methylpyrrolidin-2-yl)ethene-1-sulfonamide]		74

— patent US12084416B2, “Substituted sulfonylurea derivatives” (Zydus Lifesciences Limited, priority 2019, dated 2024)
